Source: US9463188B2, “Osteopontin production inhibitor containing dictyopyrone derivative or dihydrodictyopyrone derivative as active ingredient” (TOHOKU UNIVERSITY, priority 2013, dated 2016)

How the values were obtained:
[1] = system: human non-small cell lung cancer-derived cell line A549; assay: Wound-Healing assay; format: cell-based; conditions: A549 cells, 2 days after injury
Text: In the next stage, a determination was made as to whether or not the physiological function of cells induced by OPN production was suppressed by the compound 3 as a test compound. The determination was made by performing cell Wound-Healing assay. This assay is commonly known as a method for evaluating cell migration capacity. When a wound is made in a cell monolayer by scratching some cells with a pipette tip or the like, the wound is closed by migration of cells around the wound. The influence of a test compound on such function was observed by adding the test compound to a cell culture liquid. […]
Based on the taken images, the areas of the wounds were determined using Image-Pro Plus 7.0J (MediaCybernetics). Then, a wound healing rate (%) was calculated based on the following calculation formula: Wound healing rate (%)=100−[area of wound after 2 days from injury/area of wound just after injury]×100. The average wound-healing rates (%) of the control group and the two compound 3-treated groups at different concentrations were calculated. Further, the percentage of the wound-healing rate of the compound-treated group with respect to the wound-healing rate of the control group was also calculated.
The statistical processing of calculated values of the wound-healing rate was performed using Excel statistics, Statcel 3. […]

[2] = system: human non-small cell lung cancer-derived cell line A549; assay: Matrix-Invasion assay (Matrigel); format: cell-based
Protocol: As a second test for determining whether or not the physiological function of cells induced by OPN production is suppressed by a test compound, Matrix-Invasion assay was performed. In this assay, cups (inserts) whose bottom was covered with a membrane coated with collagen or laminin (Matrigel, BD Bioscience) as an extracellular matrix component and having φ8 μm pores and a 24-well plate for inserting the inserts were prepared. Cells suspended in a serum-free medium were placed in the inside insert, and a medium containing a substance inducing metastasis and invasion of cells (here, fetal calf serum) was injected into each well of the outside 24-well plate to determine the number of cells passing through the Matrigel-coated membrane of the insert and coming into the outside well.
Specifically, a fluorescent dye was introduced into A549 cells invading outside the membrane, and then the cells were separated from the membrane to measure their fluorescence intensity. At the same time, a fluorescent dye was introduced also into a known number of cells for preparing a calibration curve, and a calibration curve was prepared from their fluorescence intensity. Then, the number of invading cells of a test sample containing an unknown number of cells was determined from the fitted curve.
Cancer cells produce OPN by stimulation of fetal calf serum added to the outside medium. However, when OPN is present in the culture liquid, the cells produce Matrix Metalloproteinase (MMP) that is a collagen-degrading enzyme so that Matrigel is dissolved, and in addition, the cells transfer to the outside well due to their improved migration capacity. […]
Cells of a human non-small cell lung cancer-derived cell line A549 were suspended in DMEM medium containing 10% FCS and 1% P/S at 1.8×10^5 cells/mL to obtain a cell suspension. […] This day was counted as Day 0 of operation. […]

CCCCCCCCCCCC(=O)[C@H]1C(=O)O[C@@H](C)C[C@@H]1C [Chemical formula 3]
wound-healing rate vs control group ([1]; 12.5 μmol/L): no difference | wound-healing rate vs control group ([1]; 25 μmol/L, significance level less than 1%): significantly suppressed | total number of invading cells vs control group ([2]; 25 μmol/L, 48±4 hours): no significant difference | total number of invading cells relative to control group ([2]; 50 μmol/L, 48±4 hours): about half | suppression of matrix invasion vs control group ([2]; A549 cells, 50 μmol/L, significance level less than 1%): significantly suppressed
